# Literature values as cited in US20250144120A1, “COMPOSITIONS AND METHODS FOR TREATING SKIN CONDITIONS” (priority 2023, published 2025).
# Key:
# [1] = tested on: skin (guinea pigs)
# [2] = tested on: skin (rabbits)
# [3] = tested on: eyes (rabbits)
# [4] = tested on: animal subjects
smiles,measurement,setting,value
CCCCCCCCCCCCCCCCCCCCC[N+](C)(C)[Si](O)(O)O.[Cl-] [Octadecyldimethyltrihydroxysilyl propyl ammonium chloride],skin irritation,[1],does not irritate
same,skin irritation,[2],does not irritate
same,eye irritation,[3],does not irritate
same,LD50 via ingestion,[4]; ingestion,> 5000 mg/kg
same,LD50 via inhalation,[4]; inhalation,> 2 mg/L
